# Tested on: Jurkat T-Cells (E6-1 from ATCC)
# Assay: In vitro T-cell activation/inhibition assay (anti-CD3/anti-CD28 stimulation, IL-2 ELISA)
# Type: cell-based, human
# Settings: 37° C., CHP 100 μM with gelatin 0.5 mg/mL
# Method: A particular in vitro activation assay was carried out to evaluate the effects that the anti-inflammatory bioactive LAIR-1 CHPs have on T-cells. Details regarding the experimental conditions for the T-cell assay with Jukat T-cells are depicted in FIG. 13. As shown, Jukat T-cells were incubated with activating antibodies against CD3 and CD28 receptors to initiate activation. […] T-cell activation was then assessed by ELISA for IL-2 secretion in media supernatant. Activated T-cells express high levels of IL-2.
# Secreted IL-2 was measured for the following conditions: negative control which were unactivated T cells; positive control T cells which received anti-CD3 and anti-CD28 antibodies; positive control t cells which received stimulating antibodies in the presence of soluble gelatin; and the CHP test condition which received stimulating antibodies in the presence of LAIR1-CHPs.
# For the T-cell activation/inhibition experimental protocol, three monomeric CHPs (LAIR-1 HTm CHP1 [SEQ ID NO: 87, wherein x=4 and y=4], LAIR-1 HTm CHP2 [SEQ ID NO: 2, wherein x=4 and y=4], and LAIR-1 HTm CHP3 [SEQ ID NO: 106]) were tested for T-cell activation/inhibition. First, CHPs were incubated with the gelatin under test conditions for at least 24 hours at 37° C. The final gelatin concentration in the media for incubation was 0.5 mg/mL. […]
substance,measurement,setting,value
Biotin-GGG-(GPO)9 [LAIR-1 HTm CHP3],effect on IL 2 production compared to the gelatin positive control,72 hours post-stimulation,did not have an effect
same,effect on IL 2 production compared to the gelatin positive control,96 hours post-stimulation,did not have an effect

# Source: patent publication US20260234215A1, “Anti-Inflammatory Bio-Active Collagen Hybridizing Peptides and Methods of Using Thereof” (3HELIX, INC., priority 2023, published 2026)
